Biological target: T1, HIV-integrase (Human immunodeficiency virus type 1 group M subtype B, UniProt P12497)
T1 construct: Recombinant integrase (0.26 ng) was incubated with the beads
Experiment: HIV-Integrase Inhibition Activity (SPA bead integration assay with P33 labeled target DNA)
Type: biochemical
Conditions: recombinant integrase, class symbols; read-out: in vitro activity
Method in brief: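 Biotinylated substrate DNA on streptavidin SPA beads loaded with recombinant integrase (90 min, 37° C), washed, then inhibitor plus 0.1 fmol P33-labeled target DNA added. Reaction stopped with 10 mM EDTA; integration measured as CPM by scintillation, giving IC50 ranks.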

| SMILES | IC50 |
| --- | --- |
| CN(C)C(=O)C(=O)N(C)C12CCC(CC1)Cn1c2nc(C(=O)NCc2ccc3c(c2)OCO3)c(O)c1=O [Example 161, N-(2-((1,3-Benzodioxol-5-ylmethyl)carbamoyl)-3-hydroxy-4-oxo-6,7,8,9-tetrahydro-7,10-ethanopyrimido[1,2-a]azepin-10(4H)-yl)-N,N′,N′-trimethylethanediamide] | < 10 nM |
| O=C(Nc1ccccn1)NC12CCC(CC1)Cn1c2nc(C(=O)NCc2ccc(F)cc2)c(O)c1=O [Example 324, 7,10-Ethanopyrimido[1,2-a]azepine-2-carboxamide, N-[(4-fluorophenyl)methyl]-4,6,7,8,9,10-hexahydro-3-hydroxy-4-oxo-10-[[(2-pyridinylamino)carbonyl]amino]-] | < 10 nM |
| CN(C)C(=O)C(=O)NC12CCC(CC1)Cn1c2nc(C(=O)NCc2cccc(Cl)c2)c(O)c1=O [Example 380] | < 10 nM |
| Cc1cc(CNC(=O)c2nc3n(c(=O)c2O)CC[C@H]2CC[C@]3(NC(=O)C(=O)N(C)C)C2)ccc1F [Example 416, Ethanediamide, N′-[(8R,11S)-2-[[[(4-fluoro-3-methylphenyl)methyl]amino]carbonyl]-7,8,9,10-tetrahydro-3-hydroxy-4-oxo-8,11-methano-4H-pyrimido[1,2-a]azocin-11(6H)-yl]-N,N-dimethyl-] | < 10 nM |
| O=C(NC12CCC(CC1)Cn1c2nc(C(=O)NCc2ccc(F)cc2)c(O)c1=O)c1ccnc(OCC(F)(F)F)c1 [Example 316, 7,10-Ethanopyrimido[1,2-a]azepine-2-carboxamide, N-[(4-fluorophenyl)methyl]-4,6,7,8,9,10-hexahydro-3-hydroxy-4-oxo-10-[[[2-(2,2,2-trifluoroethoxy)-4-pyridinyl]carbonyl]amino]-] | < 10 nM |
| CN(C)C(=O)C(=O)NC12CCC(CC1)Cn1c2nc(C(=O)NCc2ccc(F)c(Br)c2)c(O)c1=O [Example 115, N′-(2-((3-Bromo-4-fluorobenzyl)carbamoyl)-3-hydroxy-4-oxo-6,7,8,9-tetrahydro-7,10-ethanopyrimido[1,2-a]azepin-10(4H)-yl)-N,N-dimethylethanediamide] | < 10 nM |
| CN(C)C(=O)C(=O)N(C)C12CCC(CC1)Cn1c2nc(C(=O)NCc2ccc(F)cc2)c(O)c1=O [Example 157, N-(2-((4-Fluorobenzyl)carbamoyl)-3-hydroxy-4-oxo-6,7,8,9-tetrahydro-7,10-ethanopyrimido[1,2-a]azepin-10(4H)-yl)-N,N′,N′-trimethylethanediamide] | < 10 nM |
| CN(CC(F)(F)F)C(=O)C(=O)NC12CCC(CC1)Cn1c2nc(C(=O)NCc2ccc(F)cc2)c(O)c1=O [Example 50, N′-(2-((4-Fluorobenzyl)carbamoyl)-3-hydroxy-4-oxo-6,7,8,9-tetrahydro-7,10-ethanopyrimido[1,2-a]azepin-10(4H)-yl)-N-methyl-N-(2,2,2-trifluoroethyl)ethanediamide] | < 10 nM |
| CN(C)C(=O)C(=O)NC12CCC(CC1)Cn1c2nc(C(=O)NCCc2cccc(Cl)c2)c(O)c1=O [Example 353] | < 10 nM |
| CN(C)C(=O)C(=O)NC12CCC(CC1)Cn1c2nc(C(=O)NCc2ccc(F)cc2F)c(O)c1=O [Example 114, N′-(2-((2,4-Difluorobenzyl)carbamoyl)-3-hydroxy-4-oxo-6,7,8,9-tetrahydro-7,10-ethanopyrimido[1,2-a]azepin-10(4H)-yl)-N,N-dimethylethanediamide] | < 10 nM |
| COc1cnc(Cl)c2[nH]cc(C(=O)C(=O)NC34CCC(CC3)Cn3c4nc(C(=O)NCc4ccc(F)cc4)c(O)c3=O)c12 [Example 47, 10-(((7-Chloro-4-methoxy-1H-pyrrolo[2,3-c]pyridin-3-yl)(oxo)acetyl)amino)-N-(4-fluorobenzyl)-3-hydroxy-4-oxo-4,6,7,8,9,10-hexahydro-7,10-ethanopyrimido[1,2-a]azepine-2-carboxamide] | < 10 nM |
| Cc1oncc1S(=O)(=O)NC12CCC(CC1)Cn1c2nc(C(=O)NCc2ccc(F)cc2)c(O)c1=O [Example 393] | < 10 nM |
| Cc1nnc(C(=O)NC23CCC(CC2)n2c3nc(C(=O)NCc3ccc(F)cc3)c(O)c2=O)o1 [Example 17, 6,9-Ethano-4H-pyrido[1,2-a]pyrimidine-2-carboxamide, N-[(4-fluorophenyl)methyl]-6,7,8,9-tetrahydro-3-hydroxy-9-[[(5-methyl-1,3,4-oxadiazol-2-yl)carbonyl]amino]-4-oxo-] | < 10 nM |
| Cc1cc(CNC(=O)c2nc3n(c(=O)c2O)CC2CCC3(NC(=O)C(=O)N(C)C)CC2)ccc1F [Example 113, N′-(2-((4-Fluoro-3-methylbenzyl)carbamoyl)-3-hydroxy-4-oxo-6,7,8,9-tetrahydro-7,10-ethanopyrimido[1,2-a]azepin-10(4H)-yl)-N,N-dimethylethanediamide] | < 10 nM |
| CN(C)C(=O)C(=O)NC12CCC(Cn3c1nc(C(=O)NCc1ccc(F)cc1)c(O)c3=O)C2 (stereo not drawn) [Example 188, Ethanediamide, N′-[2-[[[(4-fluorophenyl)methyl]amino]carbonyl]-6,7,8,9-tetrahydro-3-hydroxy-4-oxo-7,11-methanopyrimido[1,2-a]azepin-10(4H)-yl]-N,N-dimethyl-] | < 10 nM |
| O=C(NCc1ccc(F)cc1)c1nc2n(c(=O)c1O)CC1CCC2(NC(=O)C2CCOCC2)CC1 [Example 32, N-(4-Fluorobenzyl)-3-hydroxy-4-oxo-10-((tetrahydro-2H-pyran-4-ylcarbonyl)amino)-4,6,7,8,9,10-hexahydro-7,10-ethanopyrimido[1,2-a]azepine-2-carboxamide] | < 10 nM |
| CN(C)C(=O)C(=O)N1CCC[C@H]1C(=O)NC12CCC(CC1)Cn1c2nc(C(=O)NCc2ccc(F)cc2)c(O)c1=O [Example 269, 7,10-Ethanopyrimido[1,2-a]azepine-2-carboxamide, 10-[[[(2S)-1-[2-(dimethylamino)-1,2-dioxoethyl]-2-pyrrolidinyl]carbonyl]amino]-N-[(4-fluorophenyl)methyl]-4,6,7,8,9,10-hexahydro-3-hydroxy-4-oxo-] | < 10 nM |
| O=C(N[C@@]12CC[C@@H](CCn3c1nc(C(=O)NCc1ccc(F)cc1)c(O)c3=O)C2)C(=O)N1CC[C@@H](F)C1 [Example 418, 8,1,1-Methano-4H-pyrimido[1,2-a]azocine-2-carboxamide, N-[(4-fluorophenyl)methyl]-11-[[2-[(3R)-3-fluoro-1-pyrrolidinyl]-1,2-dioxoethyl]amino]-6,7,8,9,10,11-hexahydro-3-hydroxy-4-oxo-, (8S,11R)—] | < 10 nM |
| Cc1cc(CNC(=O)c2nc3n(c(=O)c2O)CC2CCC3(NC(=O)C3=NNC(=O)CC3)CC2)ccc1F [Example 305, 7,10-Ethanopyrimido[1,2-a]azepine-2-carboxamide, N-[(4-fluoro-3-methylphenyl)methyl]-4,6,7,8,9,10-hexahydro-3-hydroxy-4-oxo-10-[[(1,4,5,6-tetrahydro-6-oxo-3-pyridazinyl)carbonyl]amino]-] | < 10 nM |
| CS(=O)(=O)N1CCN(C(=O)N2CCN(C(=O)C(=O)NC34CCC(CC3)Cn3c4nc(C(=O)NCc4ccc(F)cc4)c(O)c3=O)CC2)C1=O [Example 144, N-(4-Fluorobenzyl)-3-hydroxy-10-(((4-((3-(methylsulfonyl)-2-oxo-1-imidazolidinyl)carbonyl)-1-piperazinyl)(oxo)acetyl)amino)-4-oxo-4,6,7,8,9,10-hexahydro-7,10-ethanopyrimido[1,2-a]azepine-2-carboxamide] | < 10 nM |
| Cc1cc(CNC(=O)c2nc3n(c(=O)c2O)CC2CCC3(NC(=O)C(C)(C)n3cc(C(=O)N(C)C)nn3)CC2)ccc1F [Example 287, 7,10-Ethanopyrimido[1,2-a]azepine-2-carboxamide, 10-[[2-[4-[(dimethylamino)carbonyl]-1H-1,2,3-triazol-1-yl]-2-methyl-1-oxopropyl]amino]-N-[(4-fluoro-3-methylphenyl)methyl]-4,6,7,8,9,10-hexahydro-3-hydroxy-4-oxo-] | < 10 nM |
| CN(C)CC(=O)NC12CCC(CC1)n1c2nc(C(=O)NCc2ccc(F)cc2)c(O)c1=O [Example 14, 6,9-Ethano-4H-pyrido[1,2-a]pyrimidine-2-carboxamide, 9-[[(dimethylamino)acetyl]amino]-N-[(4-fluorophenyl)methyl]-6,7,8,9-tetrahydro-3-hydroxy-4-oxo-] | 10 to 100 nM |
| CN(C)C(=O)C(=O)NC12CCC(CC1)Cn1c2nc(C(=O)NCc2ccccn2)c(O)c1=O [Example 363] | 10 to 100 nM |
| Cc1cc(CNC(=O)c2nc3n(c(=O)c2O)CC2CCC3(NC(=O)C(C)(C)n3cc(C(=O)N4CCN(C)CC4)nn3)CC2)ccc1F [Example 288, 7,10-Ethanopyrimido[1,2-a]azepine-2-carboxamide, N-[(4-fluoro-3-methylphenyl)methyl]-4,6,7,8,9,10-hexahydro-3-hydroxy-10-[[2-methyl-2-[4-[(4-methyl-1-piperazinyl)carbonyl]-1H-1,2,3-triazol-1-yl]-1-oxopropyl]amino]-4-oxo-] | < 10 nM |
| O=C(NC12CCC(CC1)Cn1c2nc(C(=O)NCc2ccc(F)cc2)c(O)c1=O)C(=O)N1CCN(C(=O)C2CCCO2)CC1 (stereo not drawn) [Example 74, N-(4-Fluorobenzyl)-3-hydroxy-4-oxo-10-((oxo(4-(tetrahydro-2-furanylcarbonyl)-1-piperazinyl)acetyl)amino)-4,6,7,8,9,10-hexahydro-7,10-ethanopyrimido[1,2-a]azepine-2-carboxamide] | < 10 nM |
| CN(C)C(=O)C(=O)NC12CCC(CC1)Cn1c2nc(C(=O)NCc2cccc(-c3ccccc3)c2)c(O)c1=O [Example 388] | < 10 nM |
| Cc1noc(C)c1S(=O)(=O)N1CCN(C(=O)C(=O)NC23CCC(CC2)Cn2c3nc(C(=O)NCc3ccc(F)cc3)c(O)c2=O)CC1 [Example 146, 10-(((4-((3,5-Dimethyl-4-isoxazolyl)sulfonyl)-1-piperazinyl)(oxo)acetyl)amino)-N-(4-fluorobenzyl)-3-hydroxy-4-oxo-4,6,7,8,9,10-hexahydro-7,10-ethanopyrimido[1,2-a]azepine-2-carboxamide] | < 10 nM |
